{"source": "patent US8124582B2", "about": "“Treatment of diabetes” (FibroGen, Inc., priority 2002, dated 2012)", "key": {"HIF-1α": {"system": "HIF-1α", "test": "HIF-1α stabilization in cells, nuclear fraction Western blot", "format": "cell-based, Human", "details": "various cell types, overnight incubation, 20% O2; FIG. 12A", "description": "Stabilization of HIFα using compounds and methods of the present invention was examined as follows. Human cells derived from adenovirus-transformed fetal kidney epithelium (293A), cervical epithelial adenocarcinoma (HeLa), hepatocellular carcinoma (Hep3B), squamous carcinoma (SSC-25), and lung fibroblast (HLF) (see, e.g., American Type Culture Collection, Manassas Va.; and Qbiogene, Carlsbad Calif.) were separately seeded into 100 mm culture dishes and grown at 37° C., 20% O2, 10% CO2 in media as follows: HeLa cells in Dulbecco's Modification of Eagle's Medium (DMEM), 2% fetal bovine serum (FBS); HLF cells in DMEM, 10%FBS; 293A cells in DMEM, 5%FBS; and Hep3B cells in Minimal Essential Medium (MEM), Earle's BSS (Mediatech Inc., Herndon Va.), 2 mM L-glutamine, 0.1 mM non-essential amino acids, 1 mM sodium pyruvate, 10% FBS. When cell layers reached confluence, the media was replaced with OPTI-MEM media (Invitrogen Life Technologies, Carlsbad Calif.) and cell layers were incubated for approximately 24 hours in 20% O2, 10% CO2 at 37° C. Compound of the invention (one of compounds B, F, G, and H) or DMSO (0.5 to 1%) was then added to existing medium, and incubation was continued overnight.\nFollowing incubation, the media was removed, centrifuged, and stored for analysis. […]"}, "[1]": {"system": "inducible nitric oxide synthase (iNOS)", "test": "In vivo iNOS mRNA expression (quantitative PCR)", "set-up": "species or system Swiss Webster male mice", "details": "mice, oral gavage; within 8 hours following treatment, then returned to control levels; normalized to 18S rRNA; FIG. 10A", "description": "To determine gene induction patterns over time, twenty four Swiss Webster male mice (30-32 g) were obtained from Simonsen, Inc. and treated by oral gavage with a 4 ml/kg volume of either 0.5% carboxymethyl cellulose (CMC; Sigma-Aldrich, St. Louis Mo.) (0 mg/kg/day) or […] compound B (25 mg/ml in 0.5% CMC) (100 mg/kg). At 4, 8, 16, 24, 48, or 72 hours after the final dose, animals were anesthetized with isoflurane. The mice were then sacrificed and tissue samples of kidney, liver, brain, lung, and heart were isolated and stored in RNALATER solution (Ambion) at −80° C.\nTo investigate the dose response of compounds of the present invention, twelve Swiss Webster male mice (30-32 g) (obtained from Simonsen, Inc., Gilroy Calif.) were treated by oral gavage once per day for 4 days with a 4 ml/kg volume of either 0.5% carboxymethyl cellulose (CMC; Sigma-Aldrich, St. Louis Mo.), compound D (25 mg/ml in 0.5% CMC) (100 mg/kg/day), or compound B (7.5 and 25 mg/ml in 0.5% CMC) (30 and 100 mg/kg/day, respectively). Four hours after the final dose, animals were anesthetized, sacrificed, and approximately 150 mg of liver and each kidney were isolated and stored in RNALATER solution (Ambion) at −20° C.\nHypertension is a risk factor for diabetes and disorders and diseases associated with diabetes. The effects of compounds of the present invention on regulation of blood pressure were examined as follows. Animals were treated with compound B or compound D and RNA samples were prepared as described above in Example 4. […] Analysis of the relative level of gene expression was performed by quantitative PCR using a FASTSTART DNA MASTER SYBR GREEN I kit (Roche) and gene-specific primers, using a LIGHTCYCLER system (Roche), according to manufacturer's instructions. […]\nThe relative level of 18S ribosomal RNA gene expression was measured as a control. Quantitative PCR was performed using a QUANTITECT SYBR GREEN PCR kit (Qiagen) and gene-specific primers, using a LIGHTCYCLER system (Roche), according to manufacturer's instructions. […]"}, "GluT-1": {"system": "GluT-1", "test": "GluT-1 protein levels in SCC-25 cells (Western blot)", "format": "cell-based, Human", "details": "10 and 25 μM, 16 hours, FIG. 1B", "description": "Human SSC-25 (squamous cell carcinoma) or rat H9c2 (ventricular cardiomyocyte) cells were grown to confluence in 100 mm culture dishes at 37° C., 10% CO2 in DMEM with 10% fetal calf serum. Cells were then washed twice with PBS and incubated with vehicle control, compound D (10 and 25 μM), or compound C (5, 10, and 20 μM) for 16 hours. Plates were placed on ice, culture supernatant was removed, and lysis buffer-1 (LB-1: 10 mM Tris pH 7.4, 1 mM EDTA, 150 mM sodium chloride, 0.5% IGEPAL) was added. Cell lysates were harvested by scraping, incubated for 15 minutes on ice, and then centrifuged at 3000×g for 5 minutes at 4° C. The supernatant, which represents the cytosolic fraction, was collected and cytosolic proteins were separated under reducing conditions using SDS-polyacrylamide gel electrophoresis (SDS-PAGE) with equal amounts of protein loaded per lane.\nSDS-PAGE was conducted at 150 V for 2 hours, after which the proteins were transferred to a PVDF membrane at 400 mA for 1.5 hours at 4° C. The membrane was incubated in blocking buffer for 2 hours or overnight and washed once with T-TBS prior to addition of anti-GluT-1 antibody (Alpha Diagnostics) diluted to working concentration in blocking buffer. […]"}}, "data": [{"molecule": "O=C(O)c1c[nH]c2c(ccc3cccnc32)c1=O", "note": "[compound D, 4-Oxo-1,4-dihydro-[1,10]phenanthroline-3-carboxylic acid]", "values": [{"measurement": "HIFα stabilization (Western blot)", "setting": "HIF-1α", "result": "stabilized HIFα in a dose-dependent manner"}, {"measurement": "expression of the gene encoding iNOS", "setting": "[1]", "result": "increased"}, {"measurement": "protein levels of GluT-1", "setting": "GluT-1", "result": "increased"}]}]}
